Laboratory results taken from patent publication US20250197601A1, “COMPOSITION” (LMS CO., LTD., priority 2023, published 2025).

Experiment: Solubility of each synthesized compound in multiple solvents at room temperature
Format: physicochemical
Settings: room temperature (about 25° C.); for Solubility in MEK: methyl ethyl ketone; for Solubility in MIBK: methyl isobutyl ketone
Description: The solubility of each compound synthesized above was evaluated. Solubility was evaluated based on the following criteria by evaluating the solubility of each compound in multiple solvents (cyclohexanone, toluene, methyl isobutyl ketone (MIBK), or methyl ethyl ketone (MEK)) at room temperature (about 25° C.).
• A: A case where the solubility is 1% by mass or more. • B: A case where the solubility is 0.5 mass % or more and less than 1 mass %. • C: A case where the solubility is 0.2 mass % or more and less than 0.5 mass %. • D: A case where solubility is less than 0.2 mass %.

Compound	Solubility in Cyclohexanone	Solubility in MEK	Solubility in MIBK	Solubility in Toluene
Cc1ccc2c(c1)/C(=C/C=C/C=C/c1cc(C(C)(C)C)[o+]c3ccc(C)cc13)C=C(C(C)(C)C)O2 [Synthesis Example 14]	A (A case where the solubility is 1% by mass or more.)	A (A case where the solubility is 1% by mass or more.)	A (A case where the solubility is 1% by mass or more.)	A (A case where the solubility is 1% by mass or more.)
CCCCCCN1c2cc(NC(=O)C(CC)CCCC)c(C3=C([O-])/C(=c4\cc5c(cc4NC(=O)C(CC)CCCC)=[N+](CCCCCC)C(C)C5(C)C)C3=O)cc2C(C)(C)C1C (centres unmarked) [Synthesis Example 5]	A (A case where the solubility is 1% by mass or more.)	A (A case where the solubility is 1% by mass or more.)	A (A case where the solubility is 1% by mass or more.)	A (A case where the solubility is 1% by mass or more.)
CCCCC(CC)COC(=O)Nc1cc2c(cc1C1=C([O-])/C(=c3\cc4c(cc3NC(=O)OCC(CC)CCCC)=[N+](C)C(C)C4(C)C)C1=O)C(C)(C)C(C)N2C (centres unmarked) [Synthesis Example 3]	A (A case where the solubility is 1% by mass or more.)	A (A case where the solubility is 1% by mass or more.)	A (A case where the solubility is 1% by mass or more.)	A (A case where the solubility is 1% by mass or more.)
CCCCC(CC)COC(=O)Nc1cc2c(cc1C1=C([O-])/C(=c3\cc4c(cc3NC(=O)OCC(CC)CCCC)=[N+](CCOC)C(C)C4(C)C)C1=O)C(C)(C)C(C)N2CCOC (centres unmarked) [Synthesis Example 2]	A (A case where the solubility is 1% by mass or more.)	A (A case where the solubility is 1% by mass or more.)	A (A case where the solubility is 1% by mass or more.)	B (A case where the solubility is 0.5 mass % or more and less than 1 mass %.)
CC(C)(C)C1=C\C(=C/C=C/C=C/c2cc(C(C)(C)C)[o+]c3ccccc23)c2ccccc2O1 [Synthesis Example 13]	A (A case where the solubility is 1% by mass or more.)	A (A case where the solubility is 1% by mass or more.)	A (A case where the solubility is 1% by mass or more.)	B (A case where the solubility is 0.5 mass % or more and less than 1 mass %.)
C/C(C1=Nc2ccc3ccccc3c2C1(C)C)=C1/C(=O)C(C(/C)=C2/Nc3ccc4ccccc4c3C2(C)C)=C1O [Synthesis Example 12]	B (A case where the solubility is 0.5 mass % or more and less than 1 mass %.)	C (A case where the solubility is 0.2 mass % or more and less than 0.5 mass %.)	B (A case where the solubility is 0.5 mass % or more and less than 1 mass %.)	C (A case where the solubility is 0.2 mass % or more and less than 0.5 mass %.)
CC(=O)Nc1cc2c(cc1C1=C([O-])/C(=c3\cc4c(cc3NC(C)=O)=[N+](C)C(C)C4(C)C)C1=O)C(C)(C)C(C)N2C (centres unmarked) [Synthesis Example 7]	A (A case where the solubility is 1% by mass or more.)	B (A case where the solubility is 0.5 mass % or more and less than 1 mass %.)	A (A case where the solubility is 1% by mass or more.)	B (A case where the solubility is 0.5 mass % or more and less than 1 mass %.)
CCCCCCN1c2cc(NC(C)=O)c(C3=C([O-])/C(=c4\cc5c(cc4NC(C)=O)=[N+](CCCCCC)C(C)C5(C)C)C3=O)cc2C(C)(C)C1C (centres unmarked) [Synthesis Example 4]	A (A case where the solubility is 1% by mass or more.)	A (A case where the solubility is 1% by mass or more.)	A (A case where the solubility is 1% by mass or more.)	B (A case where the solubility is 0.5 mass % or more and less than 1 mass %.)
CC(C)(C)C1=C\C(=C/C=C(Cl)/C=C/c2cc(C(C)(C)C)[o+]c3ccccc23)c2ccccc2O1 [Synthesis Example 15]	A (A case where the solubility is 1% by mass or more.)	A (A case where the solubility is 1% by mass or more.)	A (A case where the solubility is 1% by mass or more.)	B (A case where the solubility is 0.5 mass % or more and less than 1 mass %.)
CC(C)(C)C1=C\C(=C/C=C/C=C/c2cc(-c3ccccc3)[o+]c(C(C)(C)C)c2)C=C(c2ccccc2)O1 [Synthesis Example 17]	B (A case where the solubility is 0.5 mass % or more and less than 1 mass %.)	B (A case where the solubility is 0.5 mass % or more and less than 1 mass %.)	A (A case where the solubility is 1% by mass or more.)	B (A case where the solubility is 0.5 mass % or more and less than 1 mass %.)
CC(C)(C)C1=C\C(=C/C=C(Cl)/C=C/c2cc(-c3ccc(C(C)(C)C)cc3)[o+]c(C(C)(C)C)c2)C=C(c2ccc(C(C)(C)C)cc2)O1 [Synthesis Example 18]	A (A case where the solubility is 1% by mass or more.)	A (A case where the solubility is 1% by mass or more.)	A (A case where the solubility is 1% by mass or more.)	B (A case where the solubility is 0.5 mass % or more and less than 1 mass %.)
CCCCCCCCS(=O)(=O)Nc1cc2c(cc1C1=C([O-])/C(=c3\cc4c(cc3NS(=O)(=O)CCCCCCCC)=[N+](CCCCCC)C(C)C4(C)C)C1=O)C(C)(C)C(C)N2CCCCCC (centres unmarked) [Synthesis Example 6]	A (A case where the solubility is 1% by mass or more.)	A (A case where the solubility is 1% by mass or more.)	A (A case where the solubility is 1% by mass or more.)	A (A case where the solubility is 1% by mass or more.)
COc1ccc2c(c1)/C(=C/C=C(Cl)/C=C/c1cc(C(C)(C)C)[o+]c3ccc(OC)cc13)C=C(C(C)(C)C)O2 [Synthesis Example 16]	A (A case where the solubility is 1% by mass or more.)	A (A case where the solubility is 1% by mass or more.)	A (A case where the solubility is 1% by mass or more.)	A (A case where the solubility is 1% by mass or more.)
CCOC(=O)Nc1cc2c(cc1C1=C([O-])/C(=c3\cc4c(cc3NC(=O)OCC)=[N+](CCOC)C(C)C4(C)C)C1=O)C(C)(C)C(C)N2CCOC (centres unmarked) [Synthesis Example 1]	A (A case where the solubility is 1% by mass or more.)	A (A case where the solubility is 1% by mass or more.)	A (A case where the solubility is 1% by mass or more.)	B (A case where the solubility is 0.5 mass % or more and less than 1 mass %.)
